Source: the supplement of paper PMC10307832

Experiments:
Experiment in all cases: relative viability (nuclei count vs DMSO), 5 days (fraction); higher = more cells survive
[1] = compound: C1CSC2=C(C(=O)N1)SC3=C2C=C(C=C3)O [kb NB 142-70] + CC(=O)c1c(C)c2cnc(Nc3ccc(N4CCNCC4)cn3)nc2n(C2CCCC2)c1=O [Palbociclib] (partner 0.5 µM)
In short: (§1)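 Lung cancer cell lines were seeded in 1536-well plates and dosed by pin tool the next day, with either a single drug or a fixed anchor-drug dose combined with five library-drug doses (not always all listed) spaced in √10 steps. Five days later, one step fixed the cells and stained their nuclei (final 0.05% Triton X-100, 1% formaldehyde, 1 ug/ml Hoechst), and nuclei were counted on 4× images. Relative viability is the nuclei count in treated wells divided by the count in vehicle wells, and each value is the median of duplicate plates.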

[2] = compound: NCC(=O)Nc1ccc(-n2nc(C(F)(F)F)cc2-c2ccc3c(ccc4ccccc43)c2)cc1 + CCNC(=O)c1noc(-c2cc(C(C)C)c(O)cc2O)c1-c1ccc(CN2CCOCC2)cc1 [Luminespib] (partner 0.01 µM)
In short: as §1

[3] = compound: NCC(=O)Nc1ccc(-n2nc(C(F)(F)F)cc2-c2ccc3c(ccc4ccccc43)c2)cc1 + Cc1cc(Nc2cc(N3CCN(C)CC3)nc(Sc3ccc(NC(=O)C4CC4)cc3)n2)n[nH]1 [Tozasertib] (partner 0.1 µM)
In short: as §1

[4] = compound: NCC(=O)Nc1ccc(-n2nc(C(F)(F)F)cc2-c2ccc3c(ccc4ccccc43)c2)cc1 + N=C(N)NC(=N)NCCc1ccccc1 [Phenformin] (partner 250 µM)
In short: as §1

Cell Line: UMC-11
- relative viability ([1]; first compound 0.1 µM): 0.322
- relative viability ([1]; first compound 1 µM): 0.344
- relative viability ([1]; first compound 3.162 µM): 0.324
- relative viability ([2]; first compound 0.02 µM): 1.06
- relative viability ([2]; first compound 0.06325 µM): 0.965
- relative viability ([2]; first compound 0.2 µM): 1.05
- relative viability ([2]; first compound 0.6325 µM): 0.948
- relative viability ([2]; first compound 2 µM): 0.948
- relative viability ([3]; first compound 0.02 µM): 0.191
- relative viability ([3]; first compound 0.06325 µM): 0.21
- relative viability ([3]; first compound 0.2 µM): 0.218
- relative viability ([3]; first compound 0.6325 µM): 0.19
- relative viability ([3]; first compound 2 µM): 0.183
- relative viability ([4]; first compound 0.02 µM): 0.292
- relative viability ([4]; first compound 0.06325 µM): 0.337
- relative viability ([4]; first compound 0.2 µM): 0.334
- relative viability ([4]; first compound 0.6325 µM): 0.319
- relative viability ([4]; first compound 2 µM): 0.335
